Laboratory results taken from EP0828726B1, “TRICYCLIC INHIBITORS OF MATRIX METALLOPROTEINASES” (WARNER-LAMBERT COMPANY, priority 1995, dated 1996).

Tests used:
[1] = molecular target: T1, GCD (recombinant gelatinase A catalytic domain) (Homo sapiens, UniProt P08253, DEL220-393); experiment: Thiopeptolide substrate IC50 assay, gelatinase A catalytic domain; format: biochemical
T1 construct: The gelatinase A catalytic domain, GCD, was similarly constructed with the additional removal of the fibronectin-like insert which interrupts the catalytic domain; made in house
T1 sequence (P08253 with tags, fused parts or gaps DEL220-393): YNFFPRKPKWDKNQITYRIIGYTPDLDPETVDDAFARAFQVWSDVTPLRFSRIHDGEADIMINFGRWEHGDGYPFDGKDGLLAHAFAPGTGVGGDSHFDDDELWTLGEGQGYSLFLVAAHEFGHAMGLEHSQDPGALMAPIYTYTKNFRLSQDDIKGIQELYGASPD
Source text: (§1) Matrix metalloproteinases share high sequence homology and the catalytic domains of each of the MMPs can be identified by sequence alignment. The gene for the catalytic domain of stromelysin-1, SCD, was constructed by removing the propeptide and C-terminal domain (Ye Q.-Z., Johnson L.L, Hupe D.J., and Baragi V., "Purification and Characterization of the Human Stromelysin Catalytic Domain Expressed in Escherichia coli", Biochemistry, 1992;31:11231-11235). The gelatinase A catalytic domain, GCD, was similarly constructed with the additional removal of the fibronectin-like insert which interrupts the catalytic domain (Ye Q.-Z., Johnson L.L, Yu A.E., and Hupe D., "Reconstructed 19 kDa Catalytic Domain of Gelatinase A is an Active Proteinase", Biochemistry, 1995;34:4702-4708). Both truncated proteins cleave synthetic peptide substrates and the natural substrates proteoglycan and gelatin in a manner similar to the full-length enzymes and can be used to identify matrix metalloproteinase inhibitors.
(§2) Experiments were carried out with both the full-length enzymes and the catalytic domains. […] IC50 values were determined using a thiopeptolide substrate, Ac-Pro-Leu-Gly-thioester-Leu-Leu-Gly-OEt (Ye Q.-Z., Johnson L.L., Hupe D.J., and Baragi V., "Purification and Characterization of the Human Stromelysin Catalytic Domain Expressed in Escherichia coli", Biochemistry, 1992;31:11231-11235). […]

[2] = molecular target: T2, SCD (stromelysin-1 catalytic domain) (Homo sapiens, UniProt P08254); experiment: Thiopeptolide substrate IC50 assay, stromelysin-1 catalytic domain; format: biochemical
T2 construct: The gene for the catalytic domain of stromelysin-1, SCD, was constructed by removing the propeptide and C-terminal domain; made in house; host or cells: Escherichia coli
T2 sequence (P08254 100-272 limits assumed): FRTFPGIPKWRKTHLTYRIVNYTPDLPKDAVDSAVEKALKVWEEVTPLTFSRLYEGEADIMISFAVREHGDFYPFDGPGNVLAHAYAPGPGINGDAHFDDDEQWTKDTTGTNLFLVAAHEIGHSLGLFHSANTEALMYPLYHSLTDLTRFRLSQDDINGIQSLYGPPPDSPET
Source text: as §1, §2

[3] = molecular target: T3, gelatinase A (recombinant full-length enzyme) (Homo sapiens, UniProt P08253); experiment: Thiopeptolide substrate IC50 assay, full-length gelatinase A; format: biochemical
T3 construct: gelatinase A (recombinant full-length enzyme)
T3 sequence (P08253 110-660): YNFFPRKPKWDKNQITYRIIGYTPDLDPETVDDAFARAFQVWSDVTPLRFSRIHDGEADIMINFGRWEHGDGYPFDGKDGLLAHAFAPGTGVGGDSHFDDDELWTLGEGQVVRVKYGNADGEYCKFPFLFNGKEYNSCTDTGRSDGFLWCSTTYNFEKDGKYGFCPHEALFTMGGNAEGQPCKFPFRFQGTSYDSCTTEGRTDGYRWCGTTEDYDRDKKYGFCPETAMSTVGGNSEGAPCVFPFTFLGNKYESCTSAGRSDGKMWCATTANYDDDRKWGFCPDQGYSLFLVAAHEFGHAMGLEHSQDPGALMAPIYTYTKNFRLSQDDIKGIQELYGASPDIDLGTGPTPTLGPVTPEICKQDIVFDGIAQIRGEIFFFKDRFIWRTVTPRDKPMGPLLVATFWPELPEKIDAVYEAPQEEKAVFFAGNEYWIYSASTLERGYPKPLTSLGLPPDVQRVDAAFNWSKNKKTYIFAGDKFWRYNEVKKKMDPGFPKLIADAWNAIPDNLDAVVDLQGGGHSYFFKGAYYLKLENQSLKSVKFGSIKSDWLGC
Protocol: (§3) Experiments were carried out with both the full-length enzymes and the catalytic domains. […] IC50 values were determined using a thiopeptolide substrate, Ac-Pro-Leu-Gly-thioester-Leu-Leu-Gly-OEt (Ye Q.-Z., Johnson L.L., Hupe D.J., and Baragi V., "Purification and Characterization of the Human Stromelysin Catalytic Domain Expressed in Escherichia coli", Biochemistry, 1992;31:11231-11235). […] IC50 values for gelatinase B, and collagenase, were >100 µM.

EAE = experiment: Experimental allergic encephalomyelitis (EAE), Lewis rat acute model; format: in vivo
Protocol: Female Lewis rats were purchased from Harlan Sprague-Dawley (Indianapolis, IN) and were used at 8 to 10 weeks of age. Active EAE was induced by injection of 0.05 mL emulsion of myelin basic protein (MBP) with complete Freund's adjuvant (CFA), containing 25 µg guinea pig MBP and 100 µg Mycobacterium butyricum (Difco Laboratories, Detroit, MI) into one hind footpad. Immunized rats were observed daily for clinical signs of EAE and scored as follows: 0, no symptoms; 1, loss of tail tonicity; 2, paresis; 3, hind limb paralysis, often accompanied by incontinence; and 4, death. Formalin-fixed brain slice sections were stained with hematoxylin-eosin and evaluated microscopically for perivascular and parenchymal infiltration. Compound was administered by gavage as a solution in sterile saline in a volume of 500 µL. […] Several different protocols were used to define the efficacy and timing requirements for potency.
Protocol 1: Compound was administered daily at 50 mg/kg beginning on Day 0 and continuing through Day 14, with MBP in CFA administered on Day 0 also. […] N = 5 for all groups.
Controls run in parallel included CFA only and MBP in CFA. N = 4 for treatment groups. N = 8 for controls.

[4] = molecular target: T4, stromelysin-1 (full-length native enzyme) (Homo sapiens, UniProt P08254); experiment: Thiopeptolide substrate IC50 assay, full-length stromelysin-1; format: biochemical
T4 construct: stromelysin-1 (full-length native enzyme)
T4 sequence (P08254 100-477): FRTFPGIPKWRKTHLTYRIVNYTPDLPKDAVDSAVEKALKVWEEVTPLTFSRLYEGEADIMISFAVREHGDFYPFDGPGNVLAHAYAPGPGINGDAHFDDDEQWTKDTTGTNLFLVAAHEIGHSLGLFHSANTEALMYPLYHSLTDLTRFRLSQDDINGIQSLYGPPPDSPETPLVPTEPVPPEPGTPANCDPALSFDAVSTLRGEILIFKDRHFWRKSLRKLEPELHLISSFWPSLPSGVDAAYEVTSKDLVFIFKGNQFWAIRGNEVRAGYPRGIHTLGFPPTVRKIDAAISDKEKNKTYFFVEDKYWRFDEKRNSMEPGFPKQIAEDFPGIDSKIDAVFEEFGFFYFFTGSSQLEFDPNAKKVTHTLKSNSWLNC
Protocol: as §3

[5] = system: Mycobacterium footpad edema; experiment: Mycobacterium footpad edema assay (MFE); format: in vivo, Wistar rats; details: in Rattus norvegicus, po, paw swelling on third day
Protocol: The activity of Example 2 as a general inhibitor of inflammation was tested using the Mycobacterium footpad edema assay (MFE) in Wistar rats. Compound was administered daily by gavage at 2 mg/kg, 10 mg/kg, or 50 mg/kg.
Male outbred Wistar rats (110-125 g, Charles River Labs, Portage, MI) were used in this study. Rats were housed for a minimum of 1 week before use. Food and water were supplied ad libitum. Foot pad edema was induced following the method described by Martel R.R. and Klicius J., "Comparisons in rats of the antiinflammatory and gastric irritant effects of etodolac with several clinically effective antiinflammatory drugs", Agents and Actions, 1982;12:295. Briefly, male Wistar rats were injected subcutaneously into the right hind footpad with 0.1 mL of 5 mg/mL suspension of killed and dried Mycobacterium butyricum (Difco, Detroit, MI) in liquid paraffin. Compound was suspended in 0.5% hydroxypropylmethylcellulose (HPMC) containing 0.2% Tween-80 and administered orally 1 hour before injection. Subsequent doses of the compound were given 24 and 48 hours after the Mycobacterium. Control animals were given vehicle alone. Swelling was assessed on the third day by subtracting the initial volume (determined immediately following the Mycobacterium injection) from the final volume of the treated paw. Paw volume was determined by mercury plethysmography. The percent inhibition of edema achieved in each compound-treated group was determined by comparison with swelling in the vehicle-treated group and the ID50 values were determined by regression analysis. Statistical significance between experimental groups was evaluated using a Student's t-test. […]

[6] = molecular target: T5, gelatinase B (recombinant full-length enzyme) (Homo sapiens, UniProt P14780); experiment: Thiopeptolide substrate IC50 assay, gelatinase B; format: biochemical
T5 construct: gelatinase B (recombinant full-length enzyme)
T5 sequence (P14780 94-707): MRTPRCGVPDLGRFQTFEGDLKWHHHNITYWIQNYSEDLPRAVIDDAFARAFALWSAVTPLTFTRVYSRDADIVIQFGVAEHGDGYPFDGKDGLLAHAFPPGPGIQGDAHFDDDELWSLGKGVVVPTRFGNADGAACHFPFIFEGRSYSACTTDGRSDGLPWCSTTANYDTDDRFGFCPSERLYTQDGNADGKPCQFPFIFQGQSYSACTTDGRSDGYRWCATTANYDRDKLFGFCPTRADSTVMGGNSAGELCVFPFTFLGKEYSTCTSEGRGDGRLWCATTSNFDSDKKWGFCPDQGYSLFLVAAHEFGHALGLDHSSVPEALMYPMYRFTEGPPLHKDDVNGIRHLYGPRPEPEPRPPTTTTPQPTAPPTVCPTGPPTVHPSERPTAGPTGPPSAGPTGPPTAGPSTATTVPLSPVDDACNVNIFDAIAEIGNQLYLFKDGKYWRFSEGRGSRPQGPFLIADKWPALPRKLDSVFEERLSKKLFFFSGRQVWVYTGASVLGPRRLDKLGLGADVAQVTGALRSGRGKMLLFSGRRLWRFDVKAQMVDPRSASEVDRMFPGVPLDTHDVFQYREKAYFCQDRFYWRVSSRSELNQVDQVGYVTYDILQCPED
Protocol: as §3

[7] = Protocol 1: CFA + MBP, 50 mg/kg daily oral Day 0 through Day 14
[8] = Protocol 2: CFA + MBP, 10 mg/kg alternate days
[9] = Protocol 2: CFA + MBP, 50 mg/kg alternate days

## O=C(O)CCC(=NO)c1ccc2oc3ccccc3c2c1 [Example 2, 4-Dibenzofuran-2-yl-4-hydroximino-butyric acid]
[1]
  IC50: 0.04 µM
[2]
  IC50: 7.12 µM
[3]
  IC50: 1.31 µM
EAE; Protocol 1, 50 mg/kg daily
  treated animals showing reduction of symptoms: 20%
  treated animals showing total inhibition of symptoms: 80%
EAE; Protocol 1, 50 mg/kg daily, histology of brain slices
  leukocyte migration across the blood-brain barrier: completely prevented
EAE; Protocol 1, 50 mg/kg daily, total inhibition or reduction of symptoms
  percentage of animals responding: 100%
EAE; [7]
  Day of Peak Expression: 12
  Effect on EAE Rats (≥Paresis/ Total): 1/5
EAE; Protocol 1: CFA + MBP, 50 mg/kg daily oral Day 0 through Day 14, score 0-4, N = 5
  Clinical Grade at Peak of Disease: 1.0
EAE; Protocol 1: CFA only (no MBP), 50 mg/kg daily oral
  Effect on EAE Rats (≥Paresis/ Total): 0/5
EAE; Protocol 1: CFA only (no MBP), 50 mg/kg daily oral, N = 5
  Clinical Grade at Peak of Disease: 0
EAE; [8]
  Day of Peak Expression: 14
  Effect on EAE Rats (≥Paresis/ Total): 0/4
EAE; Protocol 2: CFA + MBP, 10 mg/kg on Day 0 and alternate days through Day 14, N = 4
  Clinical Grade at Peak of Disease: 0.6
EAE; [9]
  Day of Peak Expression: 15
  Effect on EAE Rats (≥Paresis/ Total): 0/4
EAE; Protocol 2: CFA + MBP, 50 mg/kg on Day 0 and alternate days through Day 14, N = 4
  Clinical Grade at Peak of Disease: 0.8
[4]
  IC50: 7.64 µM
[5]; 2 mg/kg daily by gavage
  inhibition at 2 mg/kg: 23%
[5]; 10 mg/kg daily by gavage
  inhibition at 10 mg/kg: 27%
[5]; 50 mg/kg daily by gavage
  inhibition at 50 mg/kg: 40%
[6]
  IC50: > 100 µM
